Test results reported in US10793565B2, “Heterocyclic compounds as immunomodulators” (Incyte Corporation, priority 2016, dated 2020).

These molecules were tested against PD-1/PD-L1 protein/protein interaction (Homo sapiens (Human), UniProt Q9NZQ7) (assay: PD-1/PD-L1 Homogeneous Time-Resolved Fluorescence (HTRF) binding assay). Conditions: recombinant human PD-L1 (19-238) His-tag, human PD-1 (25-167) Fc tag; 25° C., PBS pH 7.4.
Protocol: Example A. PD-1/PD-L1 Homogeneous Time-Resolved Fluorescence (HTRF) Binding Assay
The assays were conducted in a standard black 384-well polystyrene plate with a final volume of 20 μL. Inhibitors were first serially diluted in DMSO and then added to the plate wells before the addition of other reaction components. The final concentration of DMSO in the assay was 1%. The assays were carried out at 25° C. in the PBS buffer (pH 7.4) with 0.05% Tween-20 and 0.1% BSA. Recombinant human PD-L1 protein (19-238) with a His-tag at the C-terminus was purchased from AcroBiosystems (PD1-H5229). Recombinant human PD-1 protein (25-167) with Fc tag at the C-terminus was also purchased from AcroBiosystems (PD1-H5257). PD-L1 and PD-1 proteins were diluted in the assay buffer and 10 μL was added to the plate well. Plates were centrifuged and proteins were preincubated with inhibitors for 40 minutes. The incubation was followed by the addition of 10 μL of HTRF detection buffer supplemented with Europium cryptate-labeled anti-human IgG (PerkinElmer-AD0212) specific for Fc and anti-His antibody conjugated to SureLight®-Allophycocyanin (APC, PerkinElmer-AD0059H). After centrifugation, the plate was incubated at 25° C. for 60 min. before reading on a PHERAstar FS plate reader (665 nm/620 nm ratio). Final concentrations in the assay were […], 10 nM PD-L1, 1 nM europium anti-human IgG and 20 nM anti-His-Allophycocyanin. IC50 determination was performed by fitting the curve of percent control activity versus the log of the inhibitor concentration using the GraphPad Prism 5.0 software.

Chain of PD-1/PD-L1 protein/protein interaction (Q9NZQ7 19-238): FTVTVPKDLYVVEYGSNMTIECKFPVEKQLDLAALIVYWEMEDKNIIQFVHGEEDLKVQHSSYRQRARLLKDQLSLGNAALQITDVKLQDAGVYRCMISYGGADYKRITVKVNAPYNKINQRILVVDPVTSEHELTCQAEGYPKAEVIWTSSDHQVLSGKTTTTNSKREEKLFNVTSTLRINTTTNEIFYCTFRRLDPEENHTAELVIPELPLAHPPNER

Row | Compound | IC50 [µM]
1 | Cc1c(NC(=O)c2ccc(CNCCO)cn2)cccc1-c1cccc(-c2nc3c(Cl)cc(CNCCO)cn3n2)c1C [Example 1, N-(3′-(8-chloro-6-((2-hydroxyethylamino)methyl)-[1,2,4]triazolo[1,5-a]pyridin-2-yl)-2,2′-dimethylbiphenyl-3-yl)-5-((2-hydroxyethylamino)methyl)picolinamide] | ≤ 0.01
2 | Cc1c(-c2nc3c(Cl)cc(CNCCO)cn3n2)cccc1-c1cccc(NC(=O)c2ccc(CNCCO)cn2)c1Cl [Example 2, N-(2-chloro-3′-(8-chloro-6-((2-hydroxyethylamino)methyl)-[1,2,4]triazolo[1,5-a]pyridin-2-yl)-2′-methylbiphenyl-3-yl)-5-((2-hydroxyethylamino)methyl)picolinamide] | ≤ 0.01
3 | Cc1c(-c2nc3c(C#N)cc(CNCCO)cn3n2)cccc1-c1cccc(NC(=O)c2ccc(CNCCO)cn2)c1Cl [Example 3, N-(2-chloro-3′-(8-cyano-6-((2-hydroxyethylamino)methyl)-[1,2,4]triazolo[1,5-a]pyridin-2-yl)-2′-methylbiphenyl-3-yl)-5-((2-hydroxyethylamino)methyl)picolinamide] | ≤ 0.01
4 | Cc1c(-c2nc3c(Cl)cc(CNCCO)cn3n2)cccc1-c1cccc(-c2nc3c(s2)CNCC3)c1C [Example 4, 2-((8-chloro-2-(2,2′-dimethyl-3′-(4,5,6,7-tetrahydrothiazolo[5,4-c]pyridin-2-yl)biphenyl-3-yl)-[1,2,4]triazolo[1,5-a]pyridin-6-yl)methylamino)ethanol] | ≤ 0.01
